Reference: ChEMBL document CHEMBL1201862, “PubChem BioAssay data set” (2004)
The source made the active and inactive calls.

Columns and labels:
DNA topoisomerase = DNA topoisomerase (Yersinia pestis, UniProt A0A2S9PM60); assay: Yersinia topoisomerase I cleavage product accumulation – biochemical, cherry-pick, dose response (AID 588525)
Hexokinase-1 = Hexokinase-1 (Homo sapiens, UniProt P19367); assay: SAR analysis of small molecule inhibitors of hexokinase domain containing I (HKDC1) in the hexokinase 1 selectivity assay. [Related pubchem assays (depositor defined):AID493160, AID493190]; format: functional
Hexokinase-1, sequence (P19367 whole entry, the tested form may be a part): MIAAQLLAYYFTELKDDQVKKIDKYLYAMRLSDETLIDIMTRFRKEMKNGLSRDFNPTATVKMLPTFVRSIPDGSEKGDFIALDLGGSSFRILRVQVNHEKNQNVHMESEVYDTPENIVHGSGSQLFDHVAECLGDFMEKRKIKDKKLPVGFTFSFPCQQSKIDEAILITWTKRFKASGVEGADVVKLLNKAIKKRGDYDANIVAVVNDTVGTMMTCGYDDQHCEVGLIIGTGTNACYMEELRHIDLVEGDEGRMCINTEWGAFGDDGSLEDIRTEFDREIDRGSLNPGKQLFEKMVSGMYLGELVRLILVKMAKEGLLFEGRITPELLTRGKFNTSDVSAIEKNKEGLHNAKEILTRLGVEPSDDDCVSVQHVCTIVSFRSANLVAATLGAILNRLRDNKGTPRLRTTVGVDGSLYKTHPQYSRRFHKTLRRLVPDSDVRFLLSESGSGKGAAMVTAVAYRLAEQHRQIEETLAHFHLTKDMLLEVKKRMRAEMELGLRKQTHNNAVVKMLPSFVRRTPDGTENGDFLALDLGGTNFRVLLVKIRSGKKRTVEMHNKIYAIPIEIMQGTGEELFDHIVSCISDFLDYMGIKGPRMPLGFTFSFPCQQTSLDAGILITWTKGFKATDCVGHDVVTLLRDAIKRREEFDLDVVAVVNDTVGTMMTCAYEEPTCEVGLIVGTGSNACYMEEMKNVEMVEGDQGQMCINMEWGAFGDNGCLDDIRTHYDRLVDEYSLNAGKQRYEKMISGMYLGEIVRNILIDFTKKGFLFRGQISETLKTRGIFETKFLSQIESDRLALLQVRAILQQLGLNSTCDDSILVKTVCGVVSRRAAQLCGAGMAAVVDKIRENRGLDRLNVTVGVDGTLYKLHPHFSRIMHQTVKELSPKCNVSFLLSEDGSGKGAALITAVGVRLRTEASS

Hexokinase HKDC1 = target: T1, Hexokinase HKDC1 (Homo sapiens, UniProt Q2TB90); assay: SAR analysis of small molecule inhibitors of hexokinase domain containing I (HKDC1). [Related pubchem assays (depositor defined):AID493160, AID493190]; format: functional
T1 sequence (Q2TB90 whole entry): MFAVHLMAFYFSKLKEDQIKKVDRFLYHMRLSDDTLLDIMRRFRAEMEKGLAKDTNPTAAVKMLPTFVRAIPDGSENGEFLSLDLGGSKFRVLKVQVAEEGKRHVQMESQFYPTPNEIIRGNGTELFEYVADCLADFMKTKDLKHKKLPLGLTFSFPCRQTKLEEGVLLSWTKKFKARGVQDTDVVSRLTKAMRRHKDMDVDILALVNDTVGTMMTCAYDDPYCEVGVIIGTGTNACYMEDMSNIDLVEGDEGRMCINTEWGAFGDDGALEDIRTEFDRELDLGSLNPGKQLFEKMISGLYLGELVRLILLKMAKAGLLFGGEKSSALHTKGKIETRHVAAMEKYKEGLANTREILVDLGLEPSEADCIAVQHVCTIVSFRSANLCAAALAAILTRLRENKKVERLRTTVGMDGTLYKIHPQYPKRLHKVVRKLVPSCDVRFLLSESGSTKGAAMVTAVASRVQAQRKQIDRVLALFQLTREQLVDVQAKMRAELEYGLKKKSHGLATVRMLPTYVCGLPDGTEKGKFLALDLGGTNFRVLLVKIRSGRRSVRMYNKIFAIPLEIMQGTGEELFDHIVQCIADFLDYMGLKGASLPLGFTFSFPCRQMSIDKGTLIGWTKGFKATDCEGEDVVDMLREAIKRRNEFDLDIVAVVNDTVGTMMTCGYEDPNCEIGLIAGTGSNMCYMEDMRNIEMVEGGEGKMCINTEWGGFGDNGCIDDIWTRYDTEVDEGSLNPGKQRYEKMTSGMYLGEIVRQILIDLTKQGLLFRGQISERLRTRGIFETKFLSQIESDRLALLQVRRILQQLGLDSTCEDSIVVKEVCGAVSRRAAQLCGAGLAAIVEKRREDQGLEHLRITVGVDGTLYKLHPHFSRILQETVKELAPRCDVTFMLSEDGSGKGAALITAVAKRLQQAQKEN

Cysteine protease ATG4B = Cysteine protease ATG4B (Homo sapiens, UniProt Q9Y4P1); format: functional;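 note: Fluorescence-based dose-response confirmation assay measuring inhibition of ATG4B activity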
Cysteine protease ATG4B, sequence (Q9Y4P1 whole entry): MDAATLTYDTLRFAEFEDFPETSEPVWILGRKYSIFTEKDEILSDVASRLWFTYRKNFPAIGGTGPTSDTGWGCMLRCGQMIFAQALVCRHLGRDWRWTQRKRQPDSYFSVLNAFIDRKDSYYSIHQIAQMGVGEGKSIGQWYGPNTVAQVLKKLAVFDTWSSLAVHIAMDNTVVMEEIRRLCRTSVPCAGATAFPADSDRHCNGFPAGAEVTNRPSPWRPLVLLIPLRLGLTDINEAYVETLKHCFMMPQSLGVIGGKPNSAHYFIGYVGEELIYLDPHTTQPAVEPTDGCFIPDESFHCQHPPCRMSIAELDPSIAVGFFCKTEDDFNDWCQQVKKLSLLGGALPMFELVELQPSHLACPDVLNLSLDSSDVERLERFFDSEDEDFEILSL

Phospholipase A2 = Phospholipase A2 (Homo sapiens, UniProt P04054); format: functional;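 note: confirmatory dose-response counterscreen on phospholipase A2, testing hits that came from an ultra-high-throughput screen for ATG4B inhibitors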
Phospholipase A2, sequence (P04054 whole entry): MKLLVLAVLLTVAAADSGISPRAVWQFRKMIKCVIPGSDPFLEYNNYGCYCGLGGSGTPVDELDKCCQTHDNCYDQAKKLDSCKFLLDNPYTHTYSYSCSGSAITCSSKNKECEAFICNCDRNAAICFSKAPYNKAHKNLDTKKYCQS

[1] = viability of uninfected HEp-2 cells – cell-based, HTS, cytotoxicity control for RSV inhibitor project, dose response (AID 2410); format: functional; settings: human respiratory syncytial virus
[2] = tested on: Streptococcus sp. 'group A'; assay: Streptococcus pyogenes SK(-)GAS viability under kanamycin – luminescence, BacTiterGlo, confirmation, counter-screen for streptokinase expression inhibitor project, dose response (AID 1900); format: functional, organism-based
[3] = A Cell Based Secondary Assay To Explore Cytotoxicity of Compounds that Sensitize Mycobacterium Tuberculosis to Beta-Lactam Antibiotics.; format: functional
Streptokinase A = target: T2, Streptokinase A (Streptococcus pyogenes serotype M1, UniProt P10520); assay: viability-normalized secreted streptokinase activity reduction – plasminogen activation absorbance, OD405, dose response (AID 1914); format: functional, Streptococcus pyogenes M1 GAS;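 note: secreted streptokinase activity via plasminogen activation per viability signal from cell pellet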
T2 sequence (P10520 whole entry): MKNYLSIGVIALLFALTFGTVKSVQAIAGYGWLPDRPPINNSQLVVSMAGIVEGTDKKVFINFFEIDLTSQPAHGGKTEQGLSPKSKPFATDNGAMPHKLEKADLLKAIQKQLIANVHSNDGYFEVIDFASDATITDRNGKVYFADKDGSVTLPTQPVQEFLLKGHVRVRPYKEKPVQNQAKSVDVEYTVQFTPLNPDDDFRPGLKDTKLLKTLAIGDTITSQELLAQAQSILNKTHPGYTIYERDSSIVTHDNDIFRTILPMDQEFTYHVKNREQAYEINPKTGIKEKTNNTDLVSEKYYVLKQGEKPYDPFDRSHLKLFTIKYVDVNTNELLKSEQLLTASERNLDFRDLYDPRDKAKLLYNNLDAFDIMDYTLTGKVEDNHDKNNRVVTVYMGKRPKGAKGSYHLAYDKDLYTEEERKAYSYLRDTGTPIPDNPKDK

Streptococcus = assay: GAS UMAA2166 growth inhibition – luminescence, BacTiterGlo, counter-screen for streptokinase expression inhibitor project, dose response (AID 1915); format: functional, organism-based;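 note: potency for reduction of bacterial viability or growth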
HEK293 [4] = assay: HEK293T cell viability loss, resazurin readout – resazurin fluorescence, cytotoxicity control for NF-kB activator project, SAR follow-up (AID 493251); format: functional, cell-based; settings: Homo sapiens
Jurkat = assay: SAR Analysis of small molecule inhibitors of T-cell specific antigen receptor-induced NF-kB activation in a Jurkat cell line using a luminescence assay - Set 2. [Related pubchem assays (depositor defined):AID435003, AID435012, AID465]; format: functional, cell-based; settings: Homo sapiens
HEK293 [5] = assay: SAR Analysis of small molecule inhibitors of T-cell specific antigen receptor-induced NF-kB activation in a HEK-293T cell line using a luminescence assay - Set 2. [Related pubchem assays (depositor defined):AID435003, AID435012, AID489026]; format: functional, cell-based; settings: Homo sapiens

DNA topoisomerase, sequence (A0A2S9PM60 whole entry, the tested form may be a part): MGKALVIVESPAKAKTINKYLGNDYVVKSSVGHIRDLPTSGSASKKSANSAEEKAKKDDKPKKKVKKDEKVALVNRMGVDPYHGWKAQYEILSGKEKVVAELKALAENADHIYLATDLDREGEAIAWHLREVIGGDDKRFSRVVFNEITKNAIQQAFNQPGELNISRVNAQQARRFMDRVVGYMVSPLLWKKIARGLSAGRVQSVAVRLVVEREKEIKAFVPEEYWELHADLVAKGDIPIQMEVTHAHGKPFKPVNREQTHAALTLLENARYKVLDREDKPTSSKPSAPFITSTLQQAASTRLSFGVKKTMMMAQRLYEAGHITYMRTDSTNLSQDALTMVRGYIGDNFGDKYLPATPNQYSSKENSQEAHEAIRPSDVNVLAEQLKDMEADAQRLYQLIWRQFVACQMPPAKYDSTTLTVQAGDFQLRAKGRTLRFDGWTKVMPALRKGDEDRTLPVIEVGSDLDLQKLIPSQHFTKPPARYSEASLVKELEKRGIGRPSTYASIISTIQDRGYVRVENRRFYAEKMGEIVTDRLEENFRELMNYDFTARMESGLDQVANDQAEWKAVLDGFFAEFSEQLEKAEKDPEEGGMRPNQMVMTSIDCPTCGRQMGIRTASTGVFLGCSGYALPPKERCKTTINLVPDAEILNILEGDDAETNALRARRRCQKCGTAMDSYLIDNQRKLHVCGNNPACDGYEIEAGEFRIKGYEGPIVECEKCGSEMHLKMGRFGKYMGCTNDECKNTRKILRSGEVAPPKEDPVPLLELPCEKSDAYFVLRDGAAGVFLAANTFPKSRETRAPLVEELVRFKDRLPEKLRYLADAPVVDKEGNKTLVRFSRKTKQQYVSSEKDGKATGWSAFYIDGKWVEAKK

For `CC(=O)c1cccc(NC(=O)CCc2nnc3ccc(NCc4ccc5c(c4)OCO5)nn23)c1`, the AC50 (DNA topoisomerase) was 7.46 µM (active).

In the case of `Cc1ccc(S(=O)(=O)Nc2cc(SCC(=O)O)c(O)c3ccccc23)cc1[N+](=O)[O-]`, the IC50 (Hexokinase-1) is reported as 59.8 µM (inactive) and the IC50 (Hexokinase HKDC1) is reported as 11.4 µM (active).

In the case of `O=C(CC1SC(N/N=C/c2cccs2)=NC1=O)Nc1ccc(Cl)c(Cl)c1` (centres undefined), the IC50 (Cysteine protease ATG4B) is reported as 13.8 µM (active) and the IC50 (Phospholipase A2) is reported as 4.25 µM (active).

With `Cc1cc(NC(=O)c2ccc3c(c2)OCCO3)ccc1NC(=O)c1cc2ccccc2o1` the CC50 [1] was 18.2 µM (active), the EC50 [2] was 14 µM (active) and the CC50 [3] was > 40 µM (active). The EC50 (Streptokinase A) was > 150 µM (not active), the EC50 (Streptococcus) was 14.9 µM (active) and the IC50 (HEK293 [4]) was 8.04 µM (active). For the same compound, the IC50 (Jurkat) was 38.6 µM (inactive), the IC50 (HEK293 [5]) was 8.84 µM (active) and the IC50 (cells) was 7.55 µM (active).
